Measured values reported in patent US11957677B2, “Cancer treatment using FGFR inhibitors and PLK1 inhibitors” (Cardiff Oncology, Inc., priority 2021, dated 2024).

How the values were obtained:
γ-H2AX [1] = experiment: γ-H2AX positive cells by flow cytometry; format: cell-based; settings: NCI-H1703
Source text: To confirm the above observations, percentage of γ-H2AX positive cells was quantified using flow cytometry.

IGFR = IGFR (Homo sapiens, UniProt P08069); settings: cellular; read-out: IC50, cellular IGFR ligand-induced phosphorylation; cited from earlier work
Chain of IGFR (P08069 31-1367): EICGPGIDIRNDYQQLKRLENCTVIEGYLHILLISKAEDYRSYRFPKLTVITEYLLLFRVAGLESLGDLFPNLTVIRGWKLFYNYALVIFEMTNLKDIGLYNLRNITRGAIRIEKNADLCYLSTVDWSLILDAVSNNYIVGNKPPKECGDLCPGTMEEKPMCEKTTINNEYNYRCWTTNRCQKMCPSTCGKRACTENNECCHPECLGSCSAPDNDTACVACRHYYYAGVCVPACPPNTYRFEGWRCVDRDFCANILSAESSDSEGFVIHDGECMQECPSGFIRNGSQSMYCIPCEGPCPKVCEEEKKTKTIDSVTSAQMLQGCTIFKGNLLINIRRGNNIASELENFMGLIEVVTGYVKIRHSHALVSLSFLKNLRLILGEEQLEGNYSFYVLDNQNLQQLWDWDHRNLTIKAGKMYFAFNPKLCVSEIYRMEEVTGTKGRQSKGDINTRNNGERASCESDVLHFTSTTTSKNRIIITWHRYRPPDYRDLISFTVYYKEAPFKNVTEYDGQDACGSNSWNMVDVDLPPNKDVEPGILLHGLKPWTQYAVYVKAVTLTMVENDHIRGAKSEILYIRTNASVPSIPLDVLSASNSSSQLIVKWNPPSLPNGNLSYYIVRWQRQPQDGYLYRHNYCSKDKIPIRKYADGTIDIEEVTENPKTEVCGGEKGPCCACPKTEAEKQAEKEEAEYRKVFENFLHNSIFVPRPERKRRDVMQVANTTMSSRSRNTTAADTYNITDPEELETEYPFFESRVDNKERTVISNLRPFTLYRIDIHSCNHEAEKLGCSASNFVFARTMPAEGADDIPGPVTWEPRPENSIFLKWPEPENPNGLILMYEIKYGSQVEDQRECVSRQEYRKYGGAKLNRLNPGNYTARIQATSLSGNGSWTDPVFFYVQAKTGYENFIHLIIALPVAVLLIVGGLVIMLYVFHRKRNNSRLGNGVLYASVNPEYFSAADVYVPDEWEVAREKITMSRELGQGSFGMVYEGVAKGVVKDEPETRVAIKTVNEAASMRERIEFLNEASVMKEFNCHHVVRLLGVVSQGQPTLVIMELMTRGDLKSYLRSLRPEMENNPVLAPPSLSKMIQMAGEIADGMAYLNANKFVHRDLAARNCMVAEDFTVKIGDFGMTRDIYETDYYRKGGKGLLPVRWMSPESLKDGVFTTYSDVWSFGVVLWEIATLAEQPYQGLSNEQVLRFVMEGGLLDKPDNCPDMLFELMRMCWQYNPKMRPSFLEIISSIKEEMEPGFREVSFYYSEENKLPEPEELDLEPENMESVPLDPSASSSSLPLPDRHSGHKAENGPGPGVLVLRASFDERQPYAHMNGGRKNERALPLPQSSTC

γ-H2AX [2] = experiment: γ-H2AX by Western Blot; format: cell-based; settings: NCI-H1703
[3] = test system: FGFR1-amplified lung cancer cells; settings: in combination with FGFR inhibitors; cited from earlier work
NCI-H1703 cells [4] = experiment: colony forming capacity, crystal violet staining; format: cell-based; settings: onvansertib 50 nM, AZD4547 250 nM
Source text: The culture media was changed again after 3 days. After culturing for another 6 days, the NCI-H1703 cells were stained with crystal violet. The workflow of determining colony forming capacity is illustrated in FIG. 21. […] The colonies formed by NCI-H1703 cells shown in FIG. 22 were quantified as indicated by percentage relative intensity (FIG. 23).

cleaved caspase-3 [5] = experiment: cleaved-caspase-3 positive cells by flow cytometry; format: cell-based; settings: NCI-H1703; 24 h and 48 h; onvansertib 50 nM, AZD4547 2.5 μM
[6] = patients, cited from earlier work
AML cell lines = settings: cited from earlier work
[7] = test system: phosphorylated histone H3 (pHH3); experiment: pHH3 positive cells by flow cytometry; format: cell-based; settings: NCI-H1703
Experimental: (§1) The percentage of pHH3 positive cells was also determined using flow cytometry at 24 h and 48 h.

NCI-H1703 cells [8] = experiment: cell cycle analysis; format: cell-based; settings: 48 hrs, onvansertib 50 nM, AZD4547 2.5 μM
Experimental: as §1

PLK1 = PLK1 (Homo sapiens, UniProt P53350); settings: among a panel of 296 kinases, including other PLK members; cited from earlier work
Chain of PLK1 (P53350 whole entry): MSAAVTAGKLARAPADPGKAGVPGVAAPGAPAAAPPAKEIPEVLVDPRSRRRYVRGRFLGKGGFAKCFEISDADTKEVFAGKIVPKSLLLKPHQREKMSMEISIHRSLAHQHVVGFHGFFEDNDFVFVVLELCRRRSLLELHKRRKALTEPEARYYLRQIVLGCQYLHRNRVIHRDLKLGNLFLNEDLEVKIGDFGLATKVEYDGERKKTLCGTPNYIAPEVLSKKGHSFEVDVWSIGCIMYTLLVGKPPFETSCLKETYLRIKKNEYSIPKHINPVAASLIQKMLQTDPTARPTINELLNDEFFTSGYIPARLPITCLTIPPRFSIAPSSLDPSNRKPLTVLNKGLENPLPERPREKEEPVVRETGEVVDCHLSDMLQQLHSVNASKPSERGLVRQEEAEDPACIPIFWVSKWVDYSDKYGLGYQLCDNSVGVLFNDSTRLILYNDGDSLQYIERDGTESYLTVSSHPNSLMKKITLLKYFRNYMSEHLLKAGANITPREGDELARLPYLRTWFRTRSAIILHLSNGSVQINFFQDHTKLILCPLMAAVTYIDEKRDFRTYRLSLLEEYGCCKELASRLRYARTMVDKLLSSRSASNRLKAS

NPM at Threonine 199 = experiment: phosphorylation of NPM at Threonine 199; format: cell-based; settings: NCI-H1703; 6 hrs, 24 hrs and 48 hrs
cleaved caspase-3 [9] = experiment: cleaved caspase-3 by Western Blot; format: cell-based; settings: NCI-H1703; 24 h and 48 h; onvansertib 50 nM, AZD4547 2.5 μM
Experimental: In addition, the amounts of cleaved caspase-3 and cleaved PARP were determined at 6 h, 24 h and 48 h after different treatments using Western Blot.

[10] = time point not given, compared to DMSO
[11] = time point not given, compared to cells receiving no treatment
[12] = 24 h and 48 h, onvansertib 50 nM, AZD4547 2.5 μM

Compound | percentage of γ-H2AX positive cells (γ-H2AX [1]; [10]) | IC50 (IGFR) [nM] | amounts of γ-H2AX (γ-H2AX [2]; [11]) | antiproliferative effects and apoptosis [3] | colony-forming capacity (NCI-H1703 cells [4]) | percentage of γ-H2AX positive cells (γ-H2AX [1]; [12]) | percentage of cleaved-caspase-3 positive cells (cleaved caspase-3 [5]) | primary dose-limiting toxicities ([6]; phase I dose-escalation) | recovery of hematologic toxicities ([6]; reversible toxicities, phase I) [weeks] | inhibition of cell proliferation (AML cell lines) | percentage of pHH3 positive cells ([7]; 24 h) | percentage of pHH3 positive cells ([7]; 48 h) | % of cells in G2 and/or mitotic stages (NCI-H1703 cells [8]) | specificity for PLK1 (PLK1) | phosphorylation of NPM at Threonine 199 (NPM at Threonine 199) | amounts of γ-H2AX (γ-H2AX [2]; [12]) | amount of cleaved caspase-3 (cleaved caspase-3 [9])
COc1cc(CCc2cc(NC(=O)c3ccc(N4C[C@@H](C)N[C@@H](C)C4)cc3)n[nH]2)cc(OC)c1 [AZD4547, N-[5-[2-(3,5-Dimethoxyphenyl)ethyl]-2H-pyrazol-3-yl]-4-(3,5-diemthylpiperazin-1-yl)benzamide] | about the same | 828 | about the same | – | – | – | – | – | – | – | – | – | – | – | – | – | –
CC[C@@H]1C(=O)N(C)c2cnc(Nc3ccc(C(=O)NC4CCN(C)CC4)cc3OC)nc2N1C1CCCC1 [BI2536] | – | – | – | synergistically enhances antiproliferative effects and apoptosis | – | – | – | – | – | – | – | – | – | – | – | – | –
CN1CCN(c2ccc(OC(F)(F)F)c(Nc3ncc4c(n3)-c3c(c(C(N)=O)nn3CCO)CC4)c2)CC1 [onvansertib, 1-(2-hydroxyethyl)-8-{[5-(4-methylpiperazin-1-yl)-2-(trifluoromethoxy)phenyl]amino}-4,5-dihydro-1H-pyrazolo[4,3-h] quinazoline-3-carboxamide] | about the same | – | about the same | – | reduced the colony-forming capacity | increased the percentage of γ-H2AX positive cells | increased the percentage of cleaved-caspase-3 positive cells | neutropenia and thrombocytopenia | ≤ 3 | inhibited cell proliferation at nanomolar concentrations | increased the percentage of pHH3 positive cells | increased the percentage of pHH3 positive cells to a similar extent | increased the % of cells in G2 and/or mitotic stages | high specificity | Increased phosphorylation of NPM | increased the γ-H2AX | increased the cleaved caspase-3
